# Experiments:
# [1] = test system: different microorganism cultures; test: In vitro antibacterial activity, standard dilution tests (microorganisms of Table I); assay type: cell-based
# [2] = test system: Pseudomonas aeruginosa L4 ATCC10145; test: MIC, broth dilution test; assay type: cell-based; conditions: Isosensitest broth, 24 h, 37° C.
# [3] = test system: Strep. mitis L796 (clinical isolate); test: MIC, broth dilution test; assay type: cell-based; conditions: Todd-Hewitt broth, 24 h, 37° C.
# [4] = test system: Klebsiella pneumoniae L142; test: MIC, broth dilution test; assay type: cell-based; conditions: Isosensitest broth, 24 h, 37° C.
# [5] = test system: Staph. haemolyticus L602 (clinical isolate); test: MIC, broth dilution test; assay type: cell-based; conditions: Isosensitest broth, 24 h, 37° C.
# S. pyogenes C 203 (L 49) = test: Experimental septicemia in the mice; assay type: in vivo, CD-1 mice; conditions: mice infected i.p. with S. pyogenes C 203 (L 49); compound s.c. immediately after infection; survival on the 7th day, Spearman and Karber
# Experimental: The antimicrobial activity of the compounds of the invention is confirmed also in experimental septicemia in the mice. Control and treatment groups may include ten CD-1 mice (Charles River) weighing 18-22 g. They are infected intraperitoneally with 0.5 ml of bacterial suspension prepared by diluting an overnight culture of S. pyogenes C 203 (L 49) with sterile peptonized saline. Inocula are adjusted so that untreated animals die of septicemia within 48 h. The compounds to be tested are administered subcutaneously immediately after infection. On the 7th day, the ED50 in mg/kg is calculated by the method of Spearman and Karber (D. J. Finney "Statistical Methods in Biological Assay" Griffin, page 524, 1952) from the percentage of surviving animals at each dose.
# [6] = test system: Strep. pneumoniae L44 UC41; test: MIC, broth dilution test; assay type: cell-based; conditions: Todd-Hewitt broth, 24 h, 37° C.
# [7] = test system: Haemophilus influenzae L 970 type b ATCC 19418; test: MIC, broth dilution test; assay type: cell-based; conditions: Brain Heart broth +1% Supplement C, 48 h, 37° C.
# [8] = test system: Ureaplasma urealyticum L1479 (clinical isolate); test: MIC, broth dilution test; assay type: cell-based; conditions: PPLO broth with supplements, 24 h, about 10^4 color-changing units/ml, 37° C.
# [9] = test system: Neisseria gonorrhoeae L997 ISM68/126; test: MIC, broth dilution test; assay type: cell-based; conditions: GC base broth +1% Isovitalex, 48 h, CO2-enriched atmosphere, 37° C.
# [10] = test system: Staph. epidermidis L147 ATCC 12228 (coagulase negative); conditions: Isosensitest broth, 24 h, 37° C.
# [11] = test system: Strep. faecalis L149 ATCC 7080; test: MIC, broth dilution test; assay type: cell-based; conditions: Isosensitest broth, 24 h, 37° C.
# Strep. pyogenes L49 C203 = test: MIC, broth dilution test; assay type: cell-based; conditions: Todd-Hewitt broth, 24 h, 37° C.
# [12] = test system: Proteus vulgaris L79 X19H ATCC881; test: MIC, broth dilution test; assay type: cell-based; conditions: Isosensitest broth, 24 h, 37° C.
# Staph. aureus L165 = test: MIC, broth dilution test; assay type: cell-based; conditions: Isosensitest broth, 24 h
# [13] = test system: Clostridium perfringens L290 ISS 30543; conditions: AC broth, 24 h, anaerobic atmosphere, 37° C.
Substance,level of antimicrobial activity compared with de-acyl antibiotic A 40926 (Table I) [1],M.I.C. [2] [µg/mL],M.I.C. [3] [µg/mL],M.I.C. [4] [µg/mL],M.I.C. [5] [µg/mL],ED50 (S. pyogenes C 203 (L 49)) [mg/kg],M.I.C. [6] [µg/mL],M.I.C. [7] [µg/mL],M.I.C. [8] [µg/mL],M.I.C. [9] [µg/mL],M.I.C. [10] [µg/mL],M.I.C. [11] [µg/mL],M.I.C. (Strep. pyogenes L49 C203) [µg/mL],M.I.C. [12] [µg/mL],M.I.C. (Staph. aureus L165; Staph. aureus (10^6 cfu/ml)) [µg/mL],M.I.C. (Staph. aureus L165; Staph. aureus (30% bovine serum)) [µg/mL],"M.I.C. (Staph. aureus L165; Staph. aureus L165, 37° C., about 10^4-10^5 cfu/ml) [µg/mL]",M.I.C. [13] [µg/mL]
antibiotic A 40926 aminoglucuronyl aglycon,substantially the same level of antimicrobial activity as that reported above for de-acyl antibiotic A 40926,–,–,–,–,–,–,–,–,–,–,–,–,–,–,–,–,–
de-acyl antibiotic A 40926,–,> 128,0.5,> 128,32,2.33,0.25,128,> 128,64,2,2,0.25,> 128,2,2,1,0.13
de-acyl antibiotic A 40926 P,substantially the same level of antimicrobial activity as that reported above for de-acyl antibiotic A 40926,–,–,–,–,–,–,–,–,–,–,–,–,–,–,–,–,–

# Reference: patent US5567676A, “Glycopeptide antibiotics” (Gruppo Lepetit S.p.A, priority 1986, dated 1996)
